From patent US10647680B2, “Urea compound, preparation method therefor and medical use thereof” (Ancureall Pharmaceutical (Shanghai) Co., Ltd., priority 2016, dated 2020)

Experiments:
[1] = system: A431 (EGFR WT, amplification and high expression); experiment: In vitro growth inhibition (GI50), A431; format: cell-based; conditions: Homo sapiens, A-431
Text: (§1) Tumor cell line is an effective cell model for studying the inhibition of tumor cell growth or proliferation in vitro. In the present invention, a representative tumor cell line was selected to determine the cell growth inhibition activity of the present compound. All cell lines used were from ATCC, DSMZ, and the Cell Bank of the Chinese Academy of Sciences. Cell culture conditions and methods were in accordance with the requirements of each cell line. Cells were subcultured in vitro for no more than 3 passages each time, and as required, single-clone purification and identification of cell lines could be carried out.
(§2) The cell culture media used were RPMI1640 (Gibco), MEM (Gibco), McCOY'S5A (Gibco), and IMDM (Gibco). The complete medium was prepared by supplement with 5˜20% fetal calf serum (Gibco), 1% double-antibiotics (10000 units/mL penicillin and 10000 units/mL), 2 mM glutamine or 1 mM sodium pyruvate, respectively.
Human epidermal cancer cell line A431 (EGFR WT, amplification and high expression, from Shanghai Cell Bank of Chinese Academy of Sciences and ATCC), human lung cancer cell line NCI-H292 (EGFR WT, purchased from Shanghai Cell Bank of Chinese Academy of Sciences), NSCLC cell lines PC-9 and HCC827 (EGFR exon19 E746-A750 deletion, two cell lines are sensitive to the first-generation EGFR PTK inhibitor), NSCLC cell line NCI-H1975 (EGFR L858R/T790M and the first-generation EGFR inhibitor resistance, ATCC) were cultured with 1×RPMI1640 complete medium (supplement with 10% FBS), respectively.
(§3) Adherent cells were digested with 0.25% pancreatin-EDTA (Gibco). The suspension cells were collected by centrifugation. The supernatant was discarded and the cell pellet was resuspended and counted. Different cell concentrations (5˜10×10^4 cells/mL) were prepared according to the growth cycle of each cell line and then seeded on a 96-well plate (Corning), 100 μL/well. The cells were incubated overnight at 37° C., 5% CO2. The compounds were added to the cells on the second day with 2 wells in parallel. The final concentration of organic solvent shall not exceed 1%. The cells were continually incubated for 3 to 5 days, and then subjected to MTT assay.
(§4) The compound of the present invention and the control compound were dissolved in DMSO (Sigma) respectively, with the purity of more than 98%. The compound was stored in a concentration of 10 mM at −20° C. and diluted to 2- or 10-fold series prior to use.
(§5) Dojindo CCK8 reagent kit was used as MTT assay. THERMO […] FC meter was used as microplate reader.
(§6) For adherent cells, culture medium was removed and immediately replaced with the fresh prepared medium which contains 10% CCK8 reagent (100 μL/well). For the suspension cells, CCK8 was directly added to 10% of the final concentration. The cells were continually incubated for 1˜4 h. When a dark yellow color could be observed in the solvent control wells, the absorbance value at OD450 nm was measured and the cell growth rate was calculated according to the following formula: Cell Growth Rate (%)=100*(T−T0)/(C−T0) T=optical density of drug treatment cell well—optical density of blank control well; T0=optical density of cell well before drug treatment—optical density of blank control well; C=optical density of cell well of solvent control group—optical density of blank control well. The concentration value of 50% inhibition of cell growth (GI50) was calculated according to the drug concentration and cell growth rate curve. The experiment was independently repeated 1˜3 times, and subject to biological statistical analysis. 4. Experimental Results
Tumor cell growth inhibition test was performed by selecting representative compounds (compounds 4, 11, 12, 16, 27, 68, 71, 77, 79, 89 and 116 of the present invention). The initial concentration of the compound was 5,000 nM, then it was serially diluted by 2-fold or 10-fold to 0.01 nM. The GI50 value of each test compound was calculated according to the GI50 assay and calculation method. […]

NCI-H1993 (c-MET amp) = experiment: In vitro growth inhibition (GI50), NCI-H1993; format: cell-based; conditions: Homo sapiens, H1993, cMET Amp+
Text: as §1, §2
The human gastric cancer cell line MKN-45 (c-MET amp, ATCC) and the non-small cell lung cancer cell line NCI-H1993 (c-MET amp, ATCC) were cultured in complete medium comprising 1×RPMI1640 and 10% FBS, respectively.
as §3, §4, §5, §6
Tumor cell growth inhibition test was performed by selecting representative compounds (compounds 4, 11, 12, 16, 27, 68, 71, 77, 79, 89 and 116 of the present invention). The initial concentration of the compound was 5,000 nM, then it was serially diluted by 2-fold or 10-fold to 0.01 nM. The GI50 value of each test compound was calculated according to the GI50 assay and calculation method. The experiments were repeated 1 to 3 times, and data were subjected to biological statistical analysis.

Row | Structure (SMILES) | GI50 [1] | GI50 (NCI-H1993 (c-MET amp))
1 | CC(C)(C)c1cc(NC(=O)Nc2ccc(-n3cnc4cc(O)ccc43)cc2)no1 [Compound 4, 1-(5-tert-butyl-isoxazol-3-yl)-3-[4-(5-hydroxy-benzimidazol-1-yl)-phenyl]-urea] | 1890 nM | > 2500 nM
2 | CC(C)(C)c1cc(NC(=O)Nc2ccc(-n3cnc4cc(OCCO)ccc43)cc2)no1 [Compound 11, 1-(5-tert-butyl-isoxazol-3-yl)-3-{4-[5-(2-hydroxy-ethoxyl)-benzimidazol-1-yl]-phenyl]-urea] | 1560 nM | > 2500 nM
3 | CC(C)(C)c1cc(NC(=O)Nc2ccc(-n3cnc4cc(OCCN5CCOCC5)ccc43)cc2)no1 [Compound 16, 1-(5-tert-butyl-isoxazol-3-yl)-3-{4-[5-(2-morpholin-4-yl-ethoxyl)-benzimidazol-1-yl]-phenyl}-urea] | > 2500 nM | > 2500 nM
4 | CC(C)(C)c1cc(NC(=O)Nc2ccc(-n3cnc4ccc(OCCN5CCOCC5)cc43)cc2)no1 [Compound 27, 1-(5-tert-butyl-isoxazol-3-yl)-3-{4-[6-(2morpholin-4-yl-ethoxyl)-benzimidazol-1-yl]-phenyl}-urea] | > 2500 nM | > 2500 nM
5 | CC(C)(C)c1cc(NC(=O)Nc2ccc(-n3cnc4ccccc43)cc2)[nH]n1 [Compound 68, 1-(4-benzimidazol-1-yl-phenyl)-3-(5-tert-butyl-2H-pyrazol-3-yl)-urea] | > 2500 nM | > 2500 nM
6 | COc1ccc2c(c1)ncn2-c1ccc(NC(=O)Nc2cc(C(C)(C)C)n[nH]2)cc1 [Compound 71, 1-(5-tert-butyl-2H-pyrazol-3-yl)-3-[4-(5-methoxyl-benzimidazol-1-yl)-phenyl]-urea] | > 2500 nM | > 2500 nM
7 | COCCOc1ccc2c(c1)ncn2-c1ccc(NC(=O)Nc2cc(C(C)(C)C)n[nH]2)cc1 [Compound 77, 1-(5-tert-butyl-2H-pyrazol-3-yl)-3-{4-[5-(2-methoxyl-ethoxyl)-benzimidazol-1-yl]-phenyl}-urea] | > 2500 nM | > 2500 nM
8 | CC(C)(C)c1cc(NC(=O)Nc2ccc(-n3cnc4cc(OCCO)ccc43)cc2)[nH]n1 [Compound 79, 1-(5-tert-butyl-2H-pyrazol-3-yl)-3-{4-[5-(2-hydroxy-ethoxyl)-benzimidazol-1-yl]-phenyl]urea] | 2000 nM | > 2500 nM
9 | CC(C)(C)c1cc(NC(=O)Nc2ccc(-n3cnc4cc(OCCN5CCOCC5)ccc43)cc2)[nH]n1 [Compound 89, 1-(5-tert-butyl-2H-pyrazol-3-yl)-3-{4-[5-(2-morpholin-4-yl-ethoxyl)-benzimidazol-1-yl]-phenyl}-urea] | > 2500 nM | > 2500 nM
10 | CC(C)(C)c1cc(N)n(C(=O)Nc2ccc(-n3cnc4ccccc43)cc2)n1 [Compound 116, 5-amino-3-tert-butyl-pyrazol-1-carboxylic acid (4-benzimidazol-1-yl-phenyl)-amide] | > 2500 nM | > 2500 nM
